# Assay results taken from patent US20230140216A1, “COMBINATION THERAPY FOR TREATING MPS1” (GAIN THERAPEUTICS SA, priority 2020, published 2023).
# Tests used:
# [1] = target: T1, Recombinant human α-L-iduronidase protein IDUA (Homo sapiens, UniProt P35475); experiment: IDUA inhibition assay; type: biochemical; conditions: 4-MU alpha-L-iduronide substrate, pH 3.5, even at high concentrations
# T1 construct: Ala26-Pro653 with a C-terminal 10_His tag; 10xHis (C); host or cells: HEK293f
# T1 sequence (P35475 26-653): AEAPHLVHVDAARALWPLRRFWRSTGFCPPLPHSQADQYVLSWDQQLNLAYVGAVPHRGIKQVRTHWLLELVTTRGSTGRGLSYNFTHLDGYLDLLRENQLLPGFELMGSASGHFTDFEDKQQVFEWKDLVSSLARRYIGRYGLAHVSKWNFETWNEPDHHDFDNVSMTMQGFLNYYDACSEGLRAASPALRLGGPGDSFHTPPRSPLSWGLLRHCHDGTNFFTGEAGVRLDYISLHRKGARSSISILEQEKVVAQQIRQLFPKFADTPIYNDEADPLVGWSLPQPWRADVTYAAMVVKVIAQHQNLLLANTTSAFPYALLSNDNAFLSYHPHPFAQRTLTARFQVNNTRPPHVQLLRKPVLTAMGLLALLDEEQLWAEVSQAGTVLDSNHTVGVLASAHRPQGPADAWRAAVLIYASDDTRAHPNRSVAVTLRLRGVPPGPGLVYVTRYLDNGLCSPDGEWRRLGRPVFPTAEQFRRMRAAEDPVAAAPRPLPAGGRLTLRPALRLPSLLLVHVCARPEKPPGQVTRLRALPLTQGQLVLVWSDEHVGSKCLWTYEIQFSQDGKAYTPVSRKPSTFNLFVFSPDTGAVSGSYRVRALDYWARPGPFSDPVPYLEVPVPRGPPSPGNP
# Protocol: The ability of Compound of the Disclosure to inhibit IDUA was assessed by the assay described below.
# Recombinant human α-L-iduronidase protein IDUA PR_06_WT_X (obtained in the Institute of Biotechnology and Biomedicine in the UAB, Bellaterra, Spain) was prepared at the desired concentration in PBS:
# Recombinant Human IDUA. HEK293f. Ala26-Pro653 with a C-terminal 10_His tag. Protein buffer: 40 mM sodium acetate, 400 mM NaCl and 20% glycerol, pH=5. Produced by PPP IBB UAB.
# The activity assay (3 replicates of each sample) included the following procedures:
# In dark 96-well plates compatible with fluorometer: • 1) 25 µL of Recombinant protein or PBS (in blank samples); • 2) 1 µL CO (50X concentrate, made in an intermediate plate) or DMSO for the untreated samples; • 3) 25 µL of 200 µM substrate solution (from a stock solution of 20 mM of substrate in DMSO), 4-Methylumbelliferyl alpha-L-iduronide (Glycosynth, 44076) in 0,4 M sodium formate, pH 3,5, and 0,2% triton; • 4) Mix (shaker); • 5) 37° C. 60 min; • 6) Stop the reaction by adding 200 µL of 0,5 M Glycine / 0,3 M NaOH, pH=10; and • 7) Read Fluorescence at Ex/Em: 340/460 nm.
# [2] = In vivo safety / IV maximum tolerated dose
# [3] = target: T2, Aldurazyme (laronidase) IDUA activity in bone marrow (Homo sapiens, UniProt P35475); experiment: IDUA assay in bone marrow after i.v. Aldurazyme with or without compound; type: in vivo, C57BL/6 male mice; conditions: mice, compound i.v. + Aldurazyme 1.2 mg/kg i.v.
# T2 construct: purchased Aldurazyme; host or cells: administered i.v. to C57BL/6 male mice
# T2 sequence (P35475 26-653 limits assumed): T1 sequence (P35475 26-653)
# Protocol: (§1) Evaluation of IDUA activity in mouse bone joint cartilage samples obtained from BIO-PCY-19-025 study, where C57BL/6 male mice were administered with 1.2 mg/kg Aldurazyme (i.v. bolus administration) in the presence and absence of Compound A.
# (§2) Groups Details: • G1: Vehicle 2 +Aldurazyme (1.2 mg/kg,i.v.,) QD×1(n=6) [vehicle 2:NMP (5%) + Solutol HS-15 (5%) + Normal saline (45%) + PEG-400 (45%)]; • G2: Compound A (5 mg/kg, i.v.) + Aldurazyme (1.2 mg/kg, i.v.) QD x 1 (n=6); • G3: Compound A (10 mg/kg, i.v.) + Aldurazyme (1.2 mg/kg, i.v.) QD x 1 (n=6); • G4: Compound A (20 mg/kg, i.v.) + Aldurazyme (1.2 mg/kg, i.v.) QD x 1 (n=6); and • G5: Naïve Control (n=6).
# Bone marrow samples from mice were collected at indicated time points. After repeated freeze thaw cycles for protein extraction, bone marrow samples were diluted in formate buffer (0.4 M, pH 3.5). Total protein was estimated using Bradford reagent. 25 µl of tissue homogenate and plasma samples were added to 25 µl of 0.18 mM of 4 MUI substrate and incubated at 37° C. for 30 min. […] Plate was read at excitation 355 nm and emission 460 nm. […]
# (§3) IDUA activity was assessed from 4-MU standard curve. […] Final IDUA enzyme activity was expressed as nmols/mg of protein/hr. Data was analyzed using GraphPad prism software with one way ANOVA followed by Dunnett’s comparison test. […]
# [4] = target: T3, Aldurazyme (laronidase) IDUA activity in plasma (Homo sapiens, UniProt P35475); experiment: IDUA assay in plasma after i.v. Aldurazyme with or without compound; type: in vivo, C57BL/6 male mice; conditions: mice, compound 5, 10, 20 mg/kg i.v. + Aldurazyme 1.2 mg/kg i.v.
# T3 construct: purchased Aldurazyme; host or cells: administered i.v. to C57BL/6 male mice
# T3 sequence (P35475 26-653 limits assumed): T1 sequence (P35475 26-653)
# Protocol: as §1, §2
# Plasma samples from mice were collected at indicated time points. Plasma samples were diluted in formate buffer and total protein was estimated using Bradford reagent. 25 µl of tissue homogenate and plasma samples were added to 25 µl of 0.18 mM of 4 MUI substrate and incubated at 37° C. for 30 min. Reaction was terminated using 200 µl of stop solution (0.3 M Glycine and 0.2 M sodium carbonate, pH 10.4). Plate was read at excitation 355 nm and emission 460 nm. […]
# as §3
# [5] = target: T4, Aldurazyme (laronidase) IDUA activity in bone joint cartilage (Homo sapiens, UniProt P35475); experiment: IDUA assay in bone joint cartilage after i.v. Aldurazyme with or without compound; type: in vivo, C57BL/6 male mice; conditions: mice, compound i.v. + Aldurazyme 1.2 mg/kg i.v.
# T4 construct: purchased Aldurazyme; host or cells: administered i.v. to C57BL/6 male mice
# T4 sequence (P35475 26-653 limits assumed): T1 sequence (P35475 26-653)
# Protocol: as §1, §2
# Bone joint cartilage samples from mice were collected at indicated time points. Tissues were homogenized in RIPA buffer, protein was extracted was diluted in water. Total protein was estimated using Bradford reagent. 25 µl of tissue homogenate and plasma samples were added to 25 µl of 0.18 mM of 4 MUI substrate and incubated at 37° C. for 30 min. Reaction was terminated using 200 µl of stop solution (0.3 M Glycine and 0.2 M sodium carbonate, pH 10.4). Plate was read at excitation 355 nm and emission 460 nm. […]
# as §3
smiles,measurement,setting,value
CCN(CC(=O)Nc1c(Cl)cccc1Cl)Cc1nc2ccsc2c(=O)[nH]1 [Compound A],inhibition of IDUA enzymatic activity,[1],does not inhibit human IDUA
same,safety at tested doses,"[2]; i.v., all doses tested",safe at all doses tested
same,MTD,"[2]; mouse, in vivo, iv",45 mg/kg
same,IDUA enzymatic activity in bone marrow,[3],increases IDUA enzymatic activity in a panel of tissues
same,plasma levels / PK profile of Laronidase,[4],increasing its plasma levels in a dose-dependent manner
same,IDUA enzymatic activity in bone joint cartilage,[5],increases IDUA enzymatic activity in a panel of tissues
